In EP2140864A2 (H. Lundbeck A/S, priority 2001, dated 2002):
Where two headings read alike, the source gives them in different places.

Assays:
human 5HT1A receptor = target: T1, human 5HT1A receptor (Homo sapiens, UniProt P08908); experiment: Radioligand binding, 5-HT1A receptor (3H-8-OH-DPAT)
T1 construct: expressed in transfected cells; host or cells: COS-7 cells, transient (pCEXV-3 vector)
T1 sequence (P08908 1-422): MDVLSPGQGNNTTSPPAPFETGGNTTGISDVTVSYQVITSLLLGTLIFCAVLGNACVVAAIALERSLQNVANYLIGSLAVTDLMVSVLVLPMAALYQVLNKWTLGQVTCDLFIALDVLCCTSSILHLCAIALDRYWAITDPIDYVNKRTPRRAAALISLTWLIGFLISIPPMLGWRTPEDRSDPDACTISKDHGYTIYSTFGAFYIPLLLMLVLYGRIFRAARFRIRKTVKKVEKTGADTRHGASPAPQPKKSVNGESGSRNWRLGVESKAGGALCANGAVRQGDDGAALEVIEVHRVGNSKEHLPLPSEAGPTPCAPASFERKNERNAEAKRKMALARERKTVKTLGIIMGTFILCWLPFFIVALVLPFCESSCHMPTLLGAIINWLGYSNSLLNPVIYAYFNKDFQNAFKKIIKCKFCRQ
Protocol: 5-HT1A Receptor: The cDNA corresponding to the 5-HT1A receptor open reading frames and variable non-coding 5'-and 3'-regions, was cloned into the eukaryotic expression vector pCEXV-3. These constructs were transfected transiently into COS-7 cells by the DEAE-dextran method (Cullen, 1987), and harvested after 72 hours. Radioligand binding assays were performed as described above for the 5-HT2A receptor, except that ^3H-8-OH-DPAT was used as the radioligand and nonspecific binding was determined by the addition of 10 µM mianserin.
(§1) Binding data were analyzed using nonlinear regression and statistical techniques available in the GraphPAD Prism package (San Diego, CA). Enzymatic assay data were derived from a standard curve of reference compound data.

rat D3 receptors = target: T2, rat D3 receptors (Rattus norvegicus, UniProt P19020); experiment: Radioligand binding, dopamine D3 receptor
T2 construct: purchased BioSignal, Inc. (Montreal, Canada)
T2 sequence (P19020 whole entry): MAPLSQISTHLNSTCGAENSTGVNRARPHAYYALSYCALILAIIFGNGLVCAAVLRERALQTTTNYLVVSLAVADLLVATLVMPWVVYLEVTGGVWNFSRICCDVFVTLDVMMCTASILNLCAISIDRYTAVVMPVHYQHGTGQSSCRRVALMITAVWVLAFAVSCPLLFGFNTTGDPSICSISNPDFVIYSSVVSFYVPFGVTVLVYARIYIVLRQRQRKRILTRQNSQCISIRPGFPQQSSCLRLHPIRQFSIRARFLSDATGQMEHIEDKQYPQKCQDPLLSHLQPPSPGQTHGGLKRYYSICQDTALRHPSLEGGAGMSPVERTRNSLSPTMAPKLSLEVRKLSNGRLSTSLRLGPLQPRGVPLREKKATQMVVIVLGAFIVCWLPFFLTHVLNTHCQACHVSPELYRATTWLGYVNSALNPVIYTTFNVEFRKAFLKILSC
From the text: (§2) Other receptors: Cell membranes expressing human dopamine D1, D2, D4 and rat D3 receptors were purchased through BioSignal, Inc. (Montreal, Canada). Binding assays using the histamine H1 receptor; dopamine receptors; and α1A, α1E, and α2 adrenergic receptors may be carried out according to the procedures described in U.S. Patent No. 5,780,485, the disclosure of which is hereby incorporated by reference in its entirety into this application. Binding assays using the dopamine D5 receptor may be carried out according to the procedures described in U.S. Patent No. 5,882,855, the disclosure of which is hereby incorporated by reference in its entirety into this application. Binding assays for the human α1D adrenergic receptor may be carried out according to the procedures described in U.S. Patent No. 6,156,518, the disclosure of which is hereby incorporated by reference in its entirety into this application.
as §1

human α2B adrenoceptor = target: T3, human α2B adrenoceptor (Homo sapiens, UniProt P18089); experiment: Radioligand binding, α2B adrenergic receptor
T3 construct: expressed in transfected cells
T3 sequence (P18089 1-450): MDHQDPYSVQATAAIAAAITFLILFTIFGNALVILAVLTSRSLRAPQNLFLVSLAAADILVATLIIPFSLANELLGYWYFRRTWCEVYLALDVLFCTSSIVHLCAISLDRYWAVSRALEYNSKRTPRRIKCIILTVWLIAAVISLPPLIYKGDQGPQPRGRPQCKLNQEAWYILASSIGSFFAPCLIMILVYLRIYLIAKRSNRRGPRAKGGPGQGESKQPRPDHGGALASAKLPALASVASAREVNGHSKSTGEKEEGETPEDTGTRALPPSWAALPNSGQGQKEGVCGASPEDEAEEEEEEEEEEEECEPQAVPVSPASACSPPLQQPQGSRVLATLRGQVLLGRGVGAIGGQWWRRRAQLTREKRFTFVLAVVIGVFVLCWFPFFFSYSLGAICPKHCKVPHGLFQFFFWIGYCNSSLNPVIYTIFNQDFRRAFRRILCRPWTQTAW
From the text: as §2, §1

human 5HT1F = target: T4, human 5HT1F (Homo sapiens, UniProt P30939); experiment: Radioligand binding, 5HT1F receptor ([3H]-serotonin)
T4 construct: expressed in transfected cells
T4 sequence (P30939 1-366): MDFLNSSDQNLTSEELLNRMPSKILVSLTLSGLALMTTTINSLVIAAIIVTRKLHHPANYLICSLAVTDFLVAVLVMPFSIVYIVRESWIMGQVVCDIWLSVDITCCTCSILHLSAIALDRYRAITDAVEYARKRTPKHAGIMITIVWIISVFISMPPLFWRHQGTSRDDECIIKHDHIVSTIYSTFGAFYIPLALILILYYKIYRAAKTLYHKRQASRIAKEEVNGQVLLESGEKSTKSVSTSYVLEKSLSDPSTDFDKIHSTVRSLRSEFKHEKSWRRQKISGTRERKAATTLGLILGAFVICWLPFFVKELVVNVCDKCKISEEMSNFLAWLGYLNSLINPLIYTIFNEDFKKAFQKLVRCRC
Protocol: Human 5HT1B, 5HT1D, 5HT1E, 5HT1F, and 5HT7 Receptors: The cell lysates of LM(tk-) clonal cell line stably transfected with the genes encoding each of these 5HT receptor-subtypes were prepared as described above. Cell membranes were suspended in 50mM Tris-HCl buffer (pH 7.4 at 37°C) containing 10 mM MgCl2, 0.2 mM EDTA, 10 µM pargyline, and 0.1% ascorbate. […] Nonspecific binding was determined in the presence of 10 µM serotonin. The bound radioligand was separated by filtration through GF/B filters using a cell harvester.
as §1

[1] = target: T5, human α1D adrenergic receptor (Homo sapiens, UniProt P25100); experiment: Radioligand binding, α1D adrenergic receptor
T5 construct: expressed in transfected cells
T5 sequence (P25100 1-572): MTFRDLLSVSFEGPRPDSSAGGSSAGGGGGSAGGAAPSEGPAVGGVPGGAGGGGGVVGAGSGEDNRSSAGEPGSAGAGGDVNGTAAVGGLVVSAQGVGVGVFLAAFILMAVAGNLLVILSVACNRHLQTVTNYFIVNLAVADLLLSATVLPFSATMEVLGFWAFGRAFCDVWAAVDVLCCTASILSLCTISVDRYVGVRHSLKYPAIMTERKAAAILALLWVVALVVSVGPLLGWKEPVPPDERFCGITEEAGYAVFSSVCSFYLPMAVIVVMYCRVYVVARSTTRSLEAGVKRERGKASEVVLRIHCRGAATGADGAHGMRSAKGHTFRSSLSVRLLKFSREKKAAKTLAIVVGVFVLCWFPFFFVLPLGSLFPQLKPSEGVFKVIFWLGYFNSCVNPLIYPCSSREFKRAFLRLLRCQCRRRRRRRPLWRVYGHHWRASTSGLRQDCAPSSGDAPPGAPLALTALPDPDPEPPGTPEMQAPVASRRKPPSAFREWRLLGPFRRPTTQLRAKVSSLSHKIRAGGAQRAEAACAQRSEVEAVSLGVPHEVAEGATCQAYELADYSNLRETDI
From the text: as §2, §1

[2] = Table 8; Ki h5HT1A divided by Ki hGAL3
[3] = Table 10; Ki rD3 divided by Ki hGAL3
[4] = Table 10; Ki hα2B divided by Ki hGAL3
[5] = Table 8; Ki h5HT1F divided by Ki hGAL3
[6] = Table 10; Ki hα1D divided by Ki hGAL3

| Structure (SMILES) | Ki (human 5HT1A receptor; Table 7; read-out: h5HT1A Ki) [µM] | selectivity ratio h5HT1A (human 5HT1A receptor; [2]) | Ki (rat D3 receptors; Table 9; read-out: rD3 Ki) [µM] | selectivity ratio rD3 (rat D3 receptors; [3]) | Ki (human α2B adrenoceptor; Table 9; read-out: hα2B Ki) [µM] | selectivity ratio hα2B (human α2B adrenoceptor; [4]) | Ki (human 5HT1F; Table 7; read-out: h5HT1F Ki) [µM] | selectivity ratio h5HT1F (human 5HT1F; [5]) | Ki ([1]; Table 9; read-out: hα1D Ki) [µM] | selectivity ratio hα1D [1, 6] | Ki (human 5HT1A receptor; read-out: h5HT1A Ki; Table 7) [µM] | Ki (rat D3 receptors; read-out: rD3 Ki; Table 9) [µM] | Ki (human α2B adrenoceptor; read-out: hα2B Ki; Table 9) [µM] | Ki (human 5HT1F; read-out: h5HT1F Ki; Table 7) [µM] | Ki ([1]; read-out: hα1D Ki; Table 9) [µM] |
| --- | --- | --- | --- | --- | --- | --- | --- | --- | --- | --- | --- | --- | --- | --- | --- |
| Cc1ccc(Nc2cc(N3CCCCC3)nc(N(C)CCc3c[nH]c4ccccc34)n2)cc1 [Example 11] | 4.68 | >30 | 2.14 | 24 | 10.2 | >100 | 1.78 | 20 | 0.264 | 3 |  |  |  |  |  |
| CN(CCc1c[nH]c2ccccc12)c1nc(Nc2ccc(F)c(F)c2)cc(N2CCCCC2)n1 [Example 15] | 5.1 | >30 | 8.81 | >100 | 24.5 | >100 | 4.19 | >30 | 0.48 | 7 |  |  |  |  |  |
| COc1cccc(Nc2cc(N3CCCCC3)nc(N(C)CCc3c[nH]c4ccccc34)n2)c1 [Example 17] | 3.48 | >30 | 2.48 | 28 | 38.7 | >100 | 10.3 | >100 | 0.221 | 3 |  |  |  |  |  |
| Cc1ccc(Nc2cc(N3CCCCC3)nc(N(C)CCc3ccccc3)n2)cc1 [Example 22] | 9.71 | >100 | 5.66 | >100 | 5.76 | >100 | 5.77 | >100 | 0.368 | 13 |  |  |  |  |  |
| Cc1ccc(Nc2cc(N3CCCCC3)nc(N3CCN(c4ncccc4C(F)(F)F)CC3)n2)cc1 [Example 34] |  | >100 | 9.92 | >100 | 15.5 | >100 | 4.8 | >100 | 1.24 | >30 |  |  |  |  |  |
| COC[C@@H]1[C@@H](c2ccccc2)OCCN1c1nc(Nc2ccc(C)cc2)cc(N2CCCCC2)n1 [Example 49] |  | >100 |  | >30 |  | >100 |  | >30 |  | 3 | 29.2 | 14 | 25.4 | 8.89 | 0.678 |
| CN(C)c1cc(Nc2ccc(Cl)c(Cl)c2)nc(Nc2ccccc2)n1 [Example 60] | 33.7 | >100 | 15.3 | >100 | > 50 | >100 | 2.12 | 25 | 4.23 | >30 |  |  |  |  |  |
| Cc1ccc(Nc2cc(N(C)C)nc(N(C)CCc3c[nH]c4ccccc34)n2)cc1 [Example 77] | 5.47 | >30 | 2.72 | >30 | 7.78 | >30 | 3.24 | >30 | 0.217 | 3 |  |  |  |  |  |
| O=C1C(=Nc2cccc(C(F)(F)F)c2)c2ccccc2N1c1ccccc1 [Example 92, 1-PHENYL-3- [[3-(TRIFLUOROMETHYL)PHENYL]IMINO]-1,3-DIHYDRO-2H-INDOL-2-ONE] |  | >100 |  | >100 |  | >100 |  | >100 |  | >100 |  |  |  |  |  |
| O=C1C(=Nc2cccc(Cl)c2)c2ccccc2N1c1ccccc1 [Example 94, 3-[(3-CHLOROPHENYL)IMINO]-1-PHENYL-1,3-DIHYDRO-2H-INDOL-2-ONE] | > 50 | >100 | 0.423 | 9 | 45.4 | >100 | 5.68 | >100 | 4.03 | >30 |  |  |  |  |  |
